Measurements taken from paper PMC10065799, “High-throughput profiling of sequence recognition by tyrosine kinases and SH2 domains using bacterial peptide display” (eLife, 2023).
Like-named read-outs stand apart in the source and are kept apart here. Square brackets hold non-standard residues; d marks the D form. pY = N[C@@H](Cc1ccc(OP(=O)(O)O)cc1)C(=O)O

T1: c-Abl kinase domain (Mus musculus, UniProt P00520)
T1 sequence (P00520 242-493 limits assumed): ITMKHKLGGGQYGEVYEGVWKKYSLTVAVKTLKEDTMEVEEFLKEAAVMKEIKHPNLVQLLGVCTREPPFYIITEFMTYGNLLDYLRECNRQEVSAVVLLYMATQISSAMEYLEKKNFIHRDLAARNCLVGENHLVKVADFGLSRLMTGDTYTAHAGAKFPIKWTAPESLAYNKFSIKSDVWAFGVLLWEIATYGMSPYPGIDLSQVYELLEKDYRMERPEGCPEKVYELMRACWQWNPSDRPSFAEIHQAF


Legend:
EPHB1 kinase domain = assay: pTyr-Var library bacterial peptide display kinase screen (enrichment scores); format: biochemical, human; conditions: for Screen (variant relative to reference peptide, measured in the pTyr-Var library screen): sheet "EPHB1", variant seq vs reference seq, bacterial peptide display enrichment; for Screen: sheet EPHB1, effect of the variant peptide relative to its reference peptide in the pTyr-Var library screen (enrichment scores)
EPHB2 kinase domain = assay: as above; format: biochemical, human; conditions: sheet EPHB2;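 further: log2 fold change in enrichment of variant over reference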
c-Abl kinase domain [1] = target: T1, c-Abl kinase domain; assay: as above; format: biochemical
c-Src kinase domain [2] = target: T2, c-Src kinase domain (Homo sapiens, UniProt P12931); assay: as above; format: biochemical
Fer kinase domain = assay: as above; format: biochemical, mouse; conditions: sheet "Fer"
c-Src kinase domain [3] = target: T2, c-Src kinase domain; assay: RP-HPLC assay to measure peptide phosphorylation kinetics; format: biochemical; conditions: purified peptide substrate
c-Abl kinase domain [4] = target: T1, c-Abl kinase domain; assay: as above; format: biochemical; conditions: purified peptide substrate
[5] = target: human c-Src SH2 domain (residues 143-250) (human, UniProt P12931-1 143-250, biotin on the Avi tag (co-expression with the biotin ligase BirA)); assay: fluorescence polarisation; competition: unlabeled phosphopeptide serially diluted against 30 nM fluorescent peptide and 240 nM (1.5 x KD) c-Src SH2; same buffer; 25 °C; cubic binding equation; conditions: both partners purified
[6] = effect of the variant relative to its reference peptide in the pTyr-Var library screen
[7] = sheet "Src", variant peptide versus its reference peptide in the pTyr-Var library screen
[8] = effect of variant peptide relative to its reference peptide in the pTyr-Var library screen (enrichment scores)
[9] = value of the variant peptide against its reference peptide in the pTyr-Var library screen with Fer
[10] = sheet "Src", effect of the variant peptide relative to its reference peptide in the pTyr-Var library screen
[11] = variant peptide relative to its reference peptide, pTyr-Var library screen enrichment

| Molecule | Screen (EPHB1 kinase domain) | Screen (EPHB2 kinase domain; [8]) | Screen (Fer kinase domain; [9]) | Screen (c-Src kinase domain [2]; [10]) | also measured |
| --- | --- | --- | --- | --- | --- |
| AEFGLYAAMVR [VSX2_Y222_G223A_YF] | – | – | – | – | Screen (variant relative to reference peptide, measured in the pTyr-Var library screen) (EPHB1 kinase domain): 1.956; Screen (EPHB2 kinase domain; [6]): 1.609; Screen (c-Abl kinase domain [1]; sheet "Abl", effect of variant peptide relative to its reference peptide in pTyr-Var library screen (enrichment)): 2.617; Screen (c-Src kinase domain [2]; [7]): -0.7281 |
| ALTDNYMFVVI [HAGH_Y61_L64V_YF] | 0.4544 | 0.5365 | 0.9324 | – | – |
| ASFSLYEPAKM [MKI67_Y340_P338S] | -1.581 | -1.997 | -0.8096 | -1.253 | – |
| AVIADYMFWLG [SPATA16_Y290_M286V] | – | -0.2895 | – | – | Screen (variant relative to reference peptide, measured in the pTyr-Var library screen) (EPHB1 kinase domain): -0.3108; Screen (Fer kinase domain; [11]): -0.04255 |
| Ac-EGWQVYRLGAR-NH2 [MISP_Y95, pTyr-Var library phosphosite peptide, non-canonical c-Src substrate] | – | – | – | – | Phosphorylation Rate (c-Src kinase domain [3]): 0.701 s⁻¹ |
| Ac-LFSEYASVQV-NH2 [SIRPA_Y496_P491L, pTyr-Var library variant peptide, non-canonical c-Abl substrate] | – | 0.1232 | – | – | Screen (variant relative to reference peptide, measured in the pTyr-Var library screen) (EPHB1 kinase domain): 0.2454; Phosphorylation Rate (c-Abl kinase domain [4]): 0.182 s⁻¹; Screen (Fer kinase domain; [11]): 0.5649; Screen (c-Src kinase domain [2]; [7]): -0.1318 |
| Ac-SVEELYAIPPD-NH2 [PEAK1_Y797, pTyr-Var library phosphosite peptide] | – | – | – | – | Phosphorylation Rate (c-Abl kinase domain [4]): 0.407 s⁻¹ |
| Ac-VASSLYDIFAR-NH2 [GLB1_Y294_L297F, pTyr-Var library variant phosphosite peptide] | – | 0.8382 | 0.6922 | 1.173 | Phosphorylation Rate (c-Src kinase domain [3]): 1.477 s⁻¹ |
| CPPKVYELMIA [ABL2_Y515_R519I] | -0.2414 | -0.0581 | 0.2175 | – | Screen (c-Src kinase domain [2]): 0.5796 |
| DNKALYDICFR [TUBB3_Y208_E205K] | – | – | – | – | Screen (variant relative to reference peptide, measured in the pTyr-Var library screen) (EPHB1 kinase domain): -0.6777; Screen (EPHB2 kinase domain; [6]): -1.114; Screen (Fer kinase domain; [11]): -1.219; Screen (c-Src kinase domain [2]; [7]): -0.8548 |
| ELANLYHHVWM [BICD2_Y538_C542W] | 3.328 | 1.55 | 2.831 | 0.8025 | Screen (c-Abl kinase domain [1]; fig5-data2, sheet "Abl", Screen for the variant/reference peptide pair, pTyr-Var library): -0.8428 |
| FEELVYETVRV [FSHB_Y76_K72E] | -1.125 | -0.7932 | -0.5222 | -0.8103 | – |
| FGMQLYQKFMH [GRB14_Y347_N349K_YF] | -1.356 | -1.587 | -1.436 | -0.6929 | – |
| HLMLQYDAVVN [SLC25A32_Y152_R147H] | – | 1.051 | – | – | Screen (Fer kinase domain; [11]): 1.415 |
| HNVAIYEGFAL [ACTC1_Y168_P166A_YF] | -1.018 | -1.285 | -0.3735 | -0.2279 | – |
| IQRSLYDCPAS [PDGFRA_Y762_R764C] | 2.32 | 2.388 | 2.142 | – | – |
| LPPREYVVVPS [CAPN1_Y494_G492R] | -0.6929 | -0.3372 | 0.6785 | – | – |
| LQEQNYPAVDS [FAM114A1_Y115_L116P] | -2.139 | -0.9591 | -1.861 | – | – |

| Molecule | Screen (EPHB1 kinase domain) | Screen (EPHB2 kinase domain; [8]) | Screen (Fer kinase domain; [9]) | Screen (c-Src kinase domain [2]; [10]) | also measured |
| --- | --- | --- | --- | --- | --- |
| MAPQMYESHLP [NCAPD2_Y6_F8S] | -3.091 | -2.267 | -1.098 | – | – |
| MKDLTYSSLCF [ALOX5_Y446_A447S] | 0.1163 | 0.3665 | 1.165 | 0.1056 | – |
| PIAPVYAPSMV [ACAT1_Y331_A333P] | -0.08214 | 0.3731 | 1.079 | – | Screen (c-Src kinase domain [2]): -0.325 |
| QAPPIYLDVLG [NTRK1_Y791_V790I] | 1.721 | 1.355 | 2.26 | – | Screen (c-Src kinase domain [2]; [7]): 1.261 |
| QGFDTYFGFLL [ARSB_Y165_R160Q_YF] | 0.1277 | 0.8549 | 0.9524 | 0.07217 | – |
| QMVGMYAFSFM [AVPR2_Y124_S126F_YF] | 0.9458 | 0.9949 | 2.024 | -0.3615 | – |
| QPDLLYDHIQP [TRRAP_Y862_F860L] | – | – | – | – | Screen (variant relative to reference peptide, measured in the pTyr-Var library screen) (EPHB1 kinase domain): 1.53; Screen (EPHB2 kinase domain; [6]): 2.501; Screen (Fer kinase domain; [11]): 1.063; Screen (c-Src kinase domain [2]; [7]): 0.81 |
| QVQQIYSDSDL [MIB1_Y376_R371Q] | – | 1.36 | 0.8951 | 0.02886 | – |
| RQQQDYWLMDV [ANPEP_Y600_I603M] | -0.3 | -0.2938 | -1.652 | – | – |
| SAAAIYMVRHP [PMP22_Y117_T118M] | 2.191 | 1.843 | – | – | Screen (c-Src kinase domain [2]; [7]): -0.2351 |
| VFDHIYTTQSD [RET_Y928_L923V] | – | -2.18 | – | – | Screen (Fer kinase domain; [11]): -1.691; Screen (c-Src kinase domain [2]; [7]): -1.024 |
| VNNLVYENING [FRS2_Y306_K303N] | 1.417 | 2.712 | 1.713 | 1.603 | – |
| VVTGPYEKPSL [KIR3DS1_Y221_L220P] | -2.822 | -3.858 | -4.323 | – | – |
| WASGIYFVPKG [APBB1IP_Y340_R335W_YF] | 1.089 | 2.1 | 2.226 | 0.1676 | – |
| Ac-QSLEKS[pY]ELPDGG-NH2 (SMILES CC(=O)N[C@@H](CCC(N)=O)C(=O)N[C@@H](CO)C(=O)N[C@@H](CC(C)C)C(=O)N[C@@H](CCC(=O)O)C(=O)N[C@@H](CCCCN)C(=O)N[C@@H](CO)C(=O)N[C@@H](Cc1ccc(OP(=O)(O)O)cc1)C(=O)N[C@@H](CCC(=O)O)C(=O)N[C@@H](CC(C)C)C(=O)N1CCC[C@H]1C(=O)N[C@@H](CC(=O)O)C(=O)NCC(=O)NCC(N)=O, source: synthetic peptide (synthesized in-house, RP-HPLC purified)) [ACTB_Y240 phosphopeptide Ac-QSLEKS(pY)ELPDGG-NH2] | – | – | – | – | binding result [5]: binds |
| Ac-QSLEKS[pY]ELLDGG-NH2 (SMILES CC(=O)N[C@@H](CCC(N)=O)C(=O)N[C@@H](CO)C(=O)N[C@@H](CC(C)C)C(=O)N[C@@H](CCC(=O)O)C(=O)N[C@@H](CCCCN)C(=O)N[C@@H](CO)C(=O)N[C@@H](Cc1ccc(OP(=O)(O)O)cc1)C(=O)N[C@@H](CCC(=O)O)C(=O)N[C@@H](CC(C)C)C(=O)N[C@@H](CC(C)C)C(=O)N[C@@H](CC(=O)O)C(=O)NCC(=O)NCC(N)=O, source: synthetic peptide (synthesized in-house, RP-HPLC purified)) [ACTB_Y240_P243L phosphopeptide Ac-QSLEKS(pY)ELLDGG-NH2] | – | – | – | – | binding result [5]: binds |
| Ac-QRKQQL[pY]TAMEEG-NH2 (SMILES CSCC[C@H](NC(=O)[C@H](C)NC(=O)[C@@H](NC(=O)[C@H](Cc1ccc(OP(=O)(O)O)cc1)NC(=O)[C@H](CC(C)C)NC(=O)[C@H](CCC(N)=O)NC(=O)[C@H](CCC(N)=O)NC(=O)[C@H](CCCCN)NC(=O)[C@H](CCCNC(=N)N)NC(=O)[C@H](CCC(N)=O)NC(C)=O)[C@@H](C)O)C(=O)N[C@@H](CCC(=O)O)C(=O)N[C@@H](CCC(=O)O)C(=O)NCC(N)=O, source: synthetic peptide (synthesized in-house, RP-HPLC purified)) [CCDC39_Y593 phosphopeptide Ac-QRKQQL(pY)TAMEEG-NH2] | – | – | – | – | binding result [5]: binds |
